# Experimental data as given in paper PMC4926326, “Synthesis, Biological Activity, and Apoptotic Properties of NO-Donor/Enmein-Type ent-Kauranoid Hybrids” (International Journal of Molecular Sciences, 2016).
# Columns and labels:
# [1] = tested on: Bacillus subtilis (CMCC 63501); assay: Antibacterial assay, microbroth dilution MIC; format: cell-based; settings: Bacillus subtilis, CMCC63501; 35 °C, 18 h; read-out: MIC B. subtilis
# Text: (§1) The antibacterial activity of NO donor/enmein-type ent-kauranoid hybrids 9a–i against the Gram-negative bacterium Escherichia coli (ATCC 25922), Gram-positive bacterium Staphylococcus aureus (ATCC 29213) and Bacillus subtilis (CMCC 63501), and the fungus Monilia albicans (ATCC 10231) was first disclosed and summarized in Table 1. […] Thus, the introduction of NO-donor substituent groups at the 14-position of enmein-type 6,7-seco-ent-kauranoid could improve antimicrobial activity against S. aureus and B. subtilis.
# (§2) The minimal inhibitory concentrations (MICs) were carried out by microbroth dilution method described by the Clinical Laboratory Standards Institute. A stock solution of all the target compounds was prepared with DMSO-medium (1:2), and then graded quantities of the test compounds were diluted with medium. The specified concentration suspension of fungus and bacterium contained approximately 10^3, and 10^5 CFU/mL was added into microtitration plates. The inoculated 96-well plates were incubated at 35 °C for 18 h. MIC was defined as the lowest concentrations that prevented visible growth of the bacteria.
# [2] = tested on: Escherichia coli (ATCC 25922); assay: Antibacterial assay, microbroth dilution MIC; format: cell-based; settings: Escherichia coli, ATCC25922; 35 °C, 18 h; read-out: MIC E. coli
# Text: as §1, §2
# [3] = tested on: Staphylococcus aureus (ATCC 29213); assay: Antibacterial assay, microbroth dilution MIC; format: cell-based; settings: Staphylococcus aureus, ATCC29213; 35 °C, 18 h; read-out: MIC S. aureus
# Text: as §1, §2
# [4] = tested on: Monilia albicans (ATCC 10231); assay: Antifungal assay, microbroth dilution MIC; format: cell-based; settings: Candida albicans, ATCC10231; 35 °C, 18 h; read-out: MIC M. albicans
# Text: as §1, §2
# [5] = tested on: Bel-7402 hepatoma cell line; assay: MTT antiproliferative assay; format: cell-based, human
# Protocol: (§3) The antiproliferative activity of 9a–i against four human cancer cell lines K562 leukemia cell line, MGC-803 gastric cancer cell line, CaEs-17 esophageal cancer cell line, and Bel-7402 hepatoma cell line, and human normal liver cells L-02 was evaluated by MTT assay (Table 2).
# (§4) MTT assay was developed to monitor mammalian cell survival and proliferation in vitro [32]. CaEs-17 cells (K562, Bel-7402 and MGC-803 cells) from American Type Culture Collection (ATCC, Manassas, VA, USA) were cultivated in RPMI-1640 medium supplemented with 5% fetal bovine serum (v/v), 100 U/mL penicillin, and […] streptomycin. Cells (5 × 10^4 cell/mL) at the log phase of their growth cycle were added to each well of a 96-well plate (100 µL/well) and incubated for 24 h at 37 °C in a humidified atmosphere of 5% CO2. Then, cells were treated with or without test compounds in different concentrations. After 72 h, 5 mg/mL MTT solution (20 µL per well) was added. Cells were incubated at 37 °C. After 4 h, MTT solution was removed and DMSO was added to each well (150 µL). Ten minutes later at room temperature, the optical density (OD) values were measured at the wavelength of 490 nm on a Microplate Reader NO. 550 (BIO-RAD Instruments Inc., Hercules, CA, USA). In this experiment, 10 µg/mL of Taxol was used as the positive control and 0.1% DMSO was used as the negative reference.
# K562 leukemia cell line = assay: MTT antiproliferative assay; format: cell-based, human; settings: Homo sapiens, K562, 72 h, MTT, 72 h, mean ± SD of three experiments; read-out: IC50 K562
# Protocol: as §3, §4
# [6] = tested on: MGC-803 gastric cancer cell line; assay: MTT antiproliferative assay; format: cell-based, human; settings: Homo sapiens, MGC-803, 72 h, MTT, 72 h, mean ± SD of three experiments; read-out: IC50 MGC-803
# Protocol: as §3, §4
# [7] = tested on: CaEs-17 esophageal cancer cell line; assay: MTT antiproliferative assay; format: cell-based; settings: Homo sapiens, CaEs17; MTT, 72 h, mean ± SD of three experiments; read-out: IC50 CaEs-17
# Protocol: as §3, §4
# [8] = tested on: human normal liver cells L-02; assay: MTT assay on normal cells; format: cell-based; settings: MTT, 72 h, normal liver cells, mean ± SD of three experiments, read-out: IC50 L-02
# Protocol: as §3, §4
# Bel-7402 cells [9] = assay: Cell cycle distribution by PI staining and flow cytometry; format: cell-based, human; settings: 48 h, control 25.51%
# Text: Cell cycle arrest is an important sign for inhibition of proliferation and the series of events that take place in a cell leading to its division and replication. […] As the inhibitory effect of 9f on cell proliferation was observed, we next assessed the effect on the cell cycle distribution of Bel-7402 cells by flow cytometry (Figure 2). […] Compound 9f could influence Bel-7402 cell cycle progression at low micromolar concentrations in a dose-dependent manner.
# Bel-7402 cells (5.0 × 10^3 cells/well) were plated in 6-well plates and incubated for 24 h, and then incubated with different concentrations (0.25, 0.5 and 1 μM) of 9f at 37 °C for 48 h. After 48 h treatment, cells were treated with 70% ethanol and RNase, sequentially, and stained with PI [34]. Cellular DNA content was measured by a flow cytometer for cell cycle distribution analysis.
# Bel-7402 cells [10] = assay: Apoptosis by Annexin-V and PI double staining, flow cytometry; format: cell-based, human; settings: 72 h; for total percentage of apoptotic cells (early and late, Q2 + Q4): vehicle 7.88%
# Protocol: To examine the potent cancer cell antiproliferative effect of 9f on Bel-7402 cells, the number of apoptotic cells was monitored using flow cytometry. The total percentage of apoptotic cells (early and late, Q2 + Q4) was 7.88% treated with a vehicle alone.
# Bel-7402 cells were incubated with different concentrations (0.25, 0.5 and 1 μM) of 9f for 72 h. Then, Annexin-V and PI double staining was used to detect apoptotic cells to analyze apoptosis according to the manufacturer’s instructions by flow cytometry.
# Bel-7402 cells [11] = assay: Mitochondrial membrane potential, JC-1 staining, flow cytometry; format: cell-based, human; settings: 48 h, 0 μM 4.62%
# Protocol: In the field of cancer, cellular apoptosis plays a very important role. The loss of mitochondrial membrane potential is a key event during drug-induced apoptosis. In order to investigate the mitochondria related effect of 9f, the fluorescent probe JC-1 (Keygen, KGA601, Nanjing, China) was used to detect the changes on mitochondrial membrane potential. Before Bel-7402 cells were stained with JC-1, cells were incubated with 0, 0.15, 0.3, and 0.6 μM of 9f. Then, the flow cytometry analysis was carried out to determine the cell numbers with collapsed mitochondria in different cell groups (Figure 4).
# Bel-7402 cells were cultured in six-well plates after treatment with 9f or vehicles for 48 h. The cells were cells were collected by trypsinization, washed with PBS (Sigma Chemical Co., Shanghai, China) and stained according to the manufacturer’s instruction (Keygen, KGA601, Nanjing, China) with the lipophilic cationic dye JC-1. The flow cytometry analysis was carried out to monitor the percentage of cells with healthy or collapsed mitochondrial membrane potentials.
smiles,measurement,setting,value
C=C1C(=O)[C@@]23C(=O)O[C@H]4CCC(C)(C)[C@H]5[C@H](O)OC[C@@]45[C@@H]2CC[C@@H]1[C@H]3OC(=O)c1ccccc1C(=O)OCCCOc1no[n+]([O-])c1S(=O)(=O)c1ccccc1 [Compound 9f],MIC,[1],64 mg/L
same,MIC,[2],> 100 mg/L
same,MIC,[3],32 mg/L
same,MIC,[4],> 100 mg/L
same,IC50,"[5]; Homo sapiens, Bel-7402, MTT, 72 h, mean ± SD of three experiments, read-out: IC50 Bel-7402",0.72 ± 0.04 µM
same,SI (selectivity index),"[5]; SI = IC50, L-02/IC50, Bel-7402",26.1
same,IC50,K562 leukemia cell line,1.68 ± 0.12 µM
same,IC50,[6],1.11 ± 0.05 µM
same,IC50,[7],3.6 ± 0.12 µM
same,IC50,[8],18.8 ± 1.25 µM
same,cells in S phase,Bel-7402 cells [9]; 0.25 μM,31.78%
same,cells in S phase,Bel-7402 cells [9]; 0.5 μM,45.33%
same,cells in S phase,Bel-7402 cells [9]; 1 μM,49.78%
same,"apoptotic cells, fold of control group",Bel-7402 cells [10]; 0.25 μM,2.76 fold
same,"total percentage of apoptotic cells (early and late, Q2 + Q4)",Bel-7402 cells [10]; 0.25 μM,21.74%
same,"apoptotic cells, fold of control group",Bel-7402 cells [10]; 0.5 μM,4.54 fold
same,"total percentage of apoptotic cells (early and late, Q2 + Q4)",Bel-7402 cells [10]; 0.5 μM,35.78%
same,"apoptotic cells, fold of control group",Bel-7402 cells [10]; 1 μM,8.01 fold
same,"total percentage of apoptotic cells (early and late, Q2 + Q4)",Bel-7402 cells [10]; 1 μM,63.15%
same,"percentage of apoptotic cells (collapsed mitochondria, JC-1)",Bel-7402 cells [11]; 0.15 μM,8.81%
same,"percentage of apoptotic cells (collapsed mitochondria, JC-1)",Bel-7402 cells [11]; 0.3 μM,21.82%
same,"percentage of apoptotic cells (collapsed mitochondria, JC-1)",Bel-7402 cells [11]; 0.6 μM,25.98%
same,melting point,,128 to 130 °C
